Measured values: the supplement of paper PMC12317010

Experiment: collision cross section in nitrogen (drift tube, single-field); higher = larger gas-phase ion size
[1] = ion type: [M+H], ion source: ESI, ion mode: Positive
[2] = ion type: [M+H], ion source: APCI, ion mode: Positive
[3] = ion type: [M+Na], ion source: ESI, ion mode: Positive
[4] = ion source: ESI, ion mode: Positive, ion type: [M]+ (permanent cation)
[5] = ion type: [M-H], ion source: ESI, ion mode: Negative
[6] = ion source: APCI, ion mode: Positive, ion type: [M]+ (permanent cation)
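Also: chemical standards at 10 µM analysed by drift tube IMS-QTOF MS in about 3.95 torr nitrogen, mean of duplicate injections differing ≤1%, mass error below 10 ppm.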

Row | Structure (SMILES) | collision cross section in nitrogen [1] | collision cross section in nitrogen [2] | collision cross section in nitrogen [3] | collision cross section in nitrogen [5] | other results
1 | Cc1ncc([N+](=O)[O-])n1C [1,2-Dimethyl-5-nitroimidazole] | 128 Å² | – | – | – | –
2 | COc1c2occc2c(OC)c2c(=O)cc(C)oc12 [Khellin] | 151.1 Å² | 151.6 Å² | 167.5 Å² | – | –
3 | C[N+](C)(C)Cc1ccccc1 [Benzyltrimethylammonium hydroxide] | – | – | – | – | collision cross section in nitrogen [4]: 131.3 Å²
4 | Nc1ccc([N+](=O)[O-])cc1O [2-Amino-5-nitrophenol] | – | – | – | 125.3 Å² | –
5 | CCCCn1cc[n+](C)c1 [1-Butyl-3-methylimidazolium chloride] | – | – | – | – | collision cross section in nitrogen [6]: 129 Å²; collision cross section in nitrogen [4]: 128.9 Å²
6 | Oc1ccnc(O)c1 [2,4-Dihydroxypyridine] | 120.2 Å² | 119.5 Å² | – | 118.5 Å² | –
7 | C[C@]12CC[C@H](O)C[C@H]1CC[C@@H]1[C@@H]2C[C@@H](O)[C@]2(C)[C@@H](C3=CC(=O)OC3)CC[C@]12O [Digoxigenin] | – | – | 220.7 Å² | – | –
8 | Cc1ccc(N)cc1O [5-Amino-2-methylphenol] | 123.5 Å² | – | – | – | –
9 | OC[C@@H](O)[C@@H](O[C@@H]1O[C@H](CO)[C@H](O)[C@H](O)[C@H]1O)[C@H](O)[C@@H](O)CO [D-Lactitol monohydrate] | – | – | 175.3 Å² | 171.4 Å² | –
10 | COC(=O)c1sccc1S(N)(=O)=O [Methyl 3-sulfamoylthiophene-2-carboxylate] | – | – | 148.5 Å² | 141.1 Å² | –
11 | CCCCCCCCCCCCCCCC[n+]1ccccc1 [Cetylpyridinium chloride] | – | – | – | – | collision cross section in nitrogen [6]: 193.3 Å²; collision cross section in nitrogen [4]: 193.7 Å²
12 | O=C(O)CC(O)C(=O)O (stereo unspecified) [Malic acid] | – | – | – | 116.9 Å² | –
13 | O=C(O)c1cc(Br)c(O)c(Br)c1 [3,5-Dibromo-4-hydroxybenzoic acid] | – | – | – | 136.4 Å² | –
14 | CCCCOC(=O)C(C)CC (stereo unspecified) [Butyl 2-methylbutyrate] | – | – | – | 146.8 Å² | –
15 | CCCCCCCCCCCC(=O)NCCCN(C)C [N-[3-(Dimethylamino)propyl]dodecanamide] | 185.2 Å² | 185.5 Å² | 181.8 Å² | – | –
16 | Nc1c(Oc2ccccc2)cc(O)c2c1C(=O)c1ccccc1C2=O [C.I. Disperse Red 60] | 178 Å² | 177.7 Å² | – | 175.8 Å² | collision cross section in nitrogen (ion type: [M+], ion source: APCI, ion mode: Positive): 172.6 Å²
17 | O=S(=O)(O)c1cc(O)c2ccc(Nc3ccccc3)cc2c1 [4-Hydroxy-7-(phenylamino)naphthalene-2-sulfonic acid] | – | – | – | 180.6 Å² | –
18 | CCOc1ccc(NC(=O)CC(C)O)cc1 (stereo unspecified) [3-Hydroxy-4-butyrophenetidide] | 155.6 Å² | 155.5 Å² | 169.5 Å² | – | –
19 | CC(C)(COC(=O)c1ccccc1)COC(=O)c1ccccc1 [Neopentyl glycol dibenzoate] | – | – | 180.7 Å² | – | –
20 | CCCCOC(=O)[C@@H](C)Oc1ccc(Oc2ccc(C#N)cc2F)cc1 [Cyhalofop-butyl] | – | – | 191.2 Å² | – | –

Row | Structure (SMILES) | collision cross section in nitrogen [1] | collision cross section in nitrogen [2] | collision cross section in nitrogen [3] | collision cross section in nitrogen [5] | other results
21 | O=[N+]([O-])/N=C1\NCCN1Cc1ccc(Cl)nc1 [Imidacloprid] | 156 Å² | – | 159.5 Å² | 157.3 Å² | –
22 | CN(C)CCOCCN(C)CCO [2-[{2-[2-(Dimethylamino)ethoxy]ethyl}(methyl)amino]ethanol] | 138.3 Å² | 138.5 Å² | 144 Å² | – | –
23 | CC(=O)Oc1c(C)c(C)c2c(c1C)CC[C@@](C)(CCC[C@H](C)CCC[C@H](C)CCCC(C)C)O2 (racemic) [dl-alpha-Tocopheryl acetate] | 226.4 Å² | – | 222 Å² | – | –
24 | OC(c1ccc(F)cc1)(c1cncnc1)c1ccccc1Cl (stereo unspecified) [Nuarimol] | 171.2 Å² | 171.6 Å² | – | 170.7 Å² | –
25 | CC(C)COP(=O)(OCC(C)C)OCC(C)C [Triisobutyl phosphate] | – | – | 183.6 Å² | – | –
26 | COP(N)(=S)Oc1ccccc1C(=O)OC(C)C (stereo unspecified) [Isocarbophos] | – | – | 168.6 Å² | – | –
27 | O=C1c2ccc(O)c(O)c2C(=O)c2c(O)ccc(O)c21 [Quinalizarin] | – | – | – | 150.5 Å² | –
28 | Nc1ccc(S(=O)(=O)O)cc1 [4-Aminobenzenesulfonic acid] | – | – | – | 134.5 Å² | –
29 | CC(C)(C)[C@H](O)[C@H](Cc1ccc(Cl)cc1)n1cncn1 [Paclobutrazol] | 171.5 Å² | – | 189.4 Å² | – | –
30 | NC(=O)c1nc(-c2cccc(-c3cc(F)ccc3OCC(F)(F)C(F)(F)F)c2)n[nH]1 | 189.1 Å² | 189.4 Å² | 190.9 Å² | 195.5 Å² | –
31 | O=c1c(-c2ccc(O)cc2)coc2cc(O)cc(O)c12 [Genistein] | 160.3 Å² | 160.3 Å² | 171.3 Å² | 161.6 Å² | –
32 | CCCCCCCCCCCCCCCC[N+](C)(C)CC [Quaternium 17] | – | – | – | – | collision cross section in nitrogen [6]: 196.1 Å²; collision cross section in nitrogen [4]: 197.2 Å²
33 | CSc1ccc(Oc2ccc(S(N)(=O)=O)cc2CN(C)C)cc1C | 195.7 Å² | 196.5 Å² | 208.1 Å² | 196.9 Å² | –
34 | N#Cc1nc(Cl)c(Cl)c(Cl)c1Cl [3,4,5,6-Tetrachloropyridine-2-carbonitrile] | 142.6 Å² | – | – | – | –
35 | N=c1ccn2c(n1)O[C@H]1[C@H](O)[C@@H](CO)O[C@H]12 [Cyclocytidine] | 143.5 Å² | 143.1 Å² | 156.7 Å² | – | –
36 | CC(=O)OCC(=O)[C@@]12N=C(C)O[C@@H]1C[C@H]1[C@@H]3CCC4=CC(=O)C=C[C@]4(C)[C@H]3[C@@H](O)C[C@@]12C [Deflazacort] | 204.8 Å² | 205.2 Å² | 213.4 Å² | 206.7 Å² | –
37 | CC(=O)OC/C=C(\C)CCC=C(C)C [Geranyl acetate] | – | – | – | 151.5 Å² | –
38 | CC(c1ccc(O)cc1)c1ccc(O)cc1 [Bisphenol E] | – | – | – | 158.3 Å² | –
39 | C[C@]12CC[C@H]3C(=CCc4cc(O)ccc43)[C@@H]1CCC2=O [Equilin] | – | – | – | 172.2 Å² | –
40 | CC(C)n1c(/C=C/[C@H](O)C[C@H](O)CC(=O)O)c(-c2ccc(F)cc2)c2ccccc21 [Fluvastatin] | – | – | – | 200 Å² | –

Row | Structure (SMILES) | collision cross section in nitrogen [1] | collision cross section in nitrogen [2] | collision cross section in nitrogen [3] | collision cross section in nitrogen [5] | other results
41 | COc1cccc([C@@]2(O)CCCC[C@@H]2CN(C)C)c1 [Tramadol] | 161.1 Å² | 160.6 Å² | 171.7 Å² | – | –
42 | O=[N+]([O-])c1ccc(Nc2ccc(Nc3ccccc3)c(S(=O)(=O)O)c2)c([N+](=O)[O-])c1 [C.I. Acid Orange 3] | – | – | – | 204.4 Å² | –
43 | O=C1c2ccccc2C(=O)N1CCc1noc(-c2ccc(CN3CCCCCC3)s2)n1 | 213.7 Å² | 214.3 Å² | 213.7 Å² | – | –
44 | FC(F)(F)c1ccc(OCCCOc2c(Cl)cc(OCC=C(Cl)Cl)cc2Cl)nc1 [Pyridalyl] | 203.8 Å² | 203 Å² | 215 Å² | – | –
45 | OCCN(CCO)CCN(CCO)CCO [2,2',2'',2'''-(1,2-Ethanediyldinitrilo)tetrakisethanol] | 149.6 Å² | 149.2 Å² | 151.1 Å² | – | –
46 | CC(C)c1cccc(C(C)C)c1N1C(=O)c2ccc(O)cc2C1=O [2-(2,6-Diisopropylphenyl)-5-hydroxy-1H-isoindole-1,3-dione] | – | – | – | 182 Å² | –
47 | CCOc1ccc2c(ccc(C=Cc3cccc([N+](=O)[O-])c3)[n+]2C)c1 [Pinakryptol Yellow] | – | – | – | – | collision cross section in nitrogen [4]: 189.2 Å²
48 | CCCCCCCCCCCCc1ccccc1S(=O)(=O)O [Sodium dodecylbenzenesulfonate] | – | – | 167.5 Å² | 186.3 Å² | –
49 | COc1cc(OC)nc(NC(=O)NS(=O)(=O)c2ncccc2C(=O)N(C)C)n1 [Nicosulfuron] | – | – | 196.2 Å² | – | –
50 | Cc1oc(-c2ccccc2)nc1CCOc1ccc(C[C@H](Nc2ccccc2C(=O)c2ccccc2)C(=O)O)cc1 [Farglitazar] | 217.1 Å² | 217.4 Å² | 224.1 Å² | 228.5 Å² | –
51 | Oc1cccc(O)n1 [6-Hydroxy-2-oxopyridinium chloride] | 120.2 Å² | – | – | 115 Å² | –
52 | NC(=O)N(O)[C@@H]1COc2cc(OCc3ccccc3)ccc21 | – | – | 165.5 Å² | – | –
53 | CCCCCCCCCCCC[N+](C)(C)CC(=O)O [C12-14-Alkyldimethyl betaines] | – | – | – | – | collision cross section in nitrogen [4]: 183.8 Å²
54 | O=C(O)CONC(=O)c1ccccc1 [Benzadox] | – | – | 150.9 Å² | – | –
55 | COc1cc(-c2nc(NC(=O)c3cc4cc(C)cc(C)c4n3CC(=O)O)sc2CCC2CCCCC2)c(OC)cc1Cl | 258.2 Å² | 258.5 Å² | 259.5 Å² | 258.7 Å² | –
56 | CCCCCCCCCCCC(=O)OCC [Ethyl dodecanoate] | – | – | – | 162.3 Å² | –
57 | CC(C)c1c(C(=O)Nc2ccccc2)c(-c2ccccc2)c(-c2ccc(F)cc2)n1CC[C@@H](O)C[C@@H](O)CC(=O)O [Atorvastatin] | 229.7 Å² | 229.1 Å² | 231.4 Å² | 228.4 Å² | –
58 | Oc1ccc(-c2ccccc2)cc1Cl [3-Chloro[1,1′-biphenyl]-4-ol] | – | – | – | 143.8 Å² | –
59 | O=C1NS(=O)(=O)c2ccccc21 [Calcium saccharin hydrate] | – | – | – | 130.5 Å² | –
